Where a SMILES comes first, the peptide text is derived from it.

For the first test, the target named is Transcriptional coactivator YAP1/Transcriptional enhancer factor TEF-1 (Homo sapiens) (UniProt P46937+P28347). The test can be described thus: Inhibition of YAP/ GST-TEAD1 (unknown origin) interaction at 50 uM by surface plasmon resonance assay. The format is protein assay. (Surface plasmon resonance follows binding to a sensor surface in real time, without labels.)
Transcriptional coactivator YAP1/Transcriptional enhancer factor TEF-1 (Homo sapiens), sequence (P28347 whole entry, looked up): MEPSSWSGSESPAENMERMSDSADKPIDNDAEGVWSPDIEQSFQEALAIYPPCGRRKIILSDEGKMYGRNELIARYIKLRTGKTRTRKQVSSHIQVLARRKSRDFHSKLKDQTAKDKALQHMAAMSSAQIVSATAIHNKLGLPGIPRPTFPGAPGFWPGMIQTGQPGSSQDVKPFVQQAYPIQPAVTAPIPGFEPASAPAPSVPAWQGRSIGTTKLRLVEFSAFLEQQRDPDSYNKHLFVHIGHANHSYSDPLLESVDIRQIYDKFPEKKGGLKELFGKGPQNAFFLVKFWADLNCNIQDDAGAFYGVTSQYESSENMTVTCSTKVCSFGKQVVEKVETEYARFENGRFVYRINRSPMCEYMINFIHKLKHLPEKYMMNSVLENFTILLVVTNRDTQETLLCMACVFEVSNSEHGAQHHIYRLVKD
Transcriptional coactivator YAP1/Transcriptional enhancer factor TEF-1 (Homo sapiens), sequence (P46937 whole entry, looked up): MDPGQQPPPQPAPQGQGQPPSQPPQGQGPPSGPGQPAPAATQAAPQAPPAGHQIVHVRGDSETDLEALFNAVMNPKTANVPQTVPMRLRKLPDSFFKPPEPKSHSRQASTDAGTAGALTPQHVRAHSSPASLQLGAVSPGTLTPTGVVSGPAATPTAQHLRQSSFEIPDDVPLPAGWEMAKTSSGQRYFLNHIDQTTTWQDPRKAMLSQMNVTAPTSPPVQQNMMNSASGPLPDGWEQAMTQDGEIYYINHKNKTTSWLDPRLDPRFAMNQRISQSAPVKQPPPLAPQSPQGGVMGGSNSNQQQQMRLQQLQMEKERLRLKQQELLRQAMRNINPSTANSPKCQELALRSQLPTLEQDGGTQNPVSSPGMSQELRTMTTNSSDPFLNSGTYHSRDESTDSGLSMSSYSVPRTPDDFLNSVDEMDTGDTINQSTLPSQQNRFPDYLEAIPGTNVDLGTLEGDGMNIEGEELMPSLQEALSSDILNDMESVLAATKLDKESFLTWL
A word on the inhibition: it is how much of the control response was suppressed. With `CSCC[C@H](NC(=O)[C@@H]1CCCN1C(=O)[C@@H](NC(=O)[C@@H](NC(=O)[C@H](CCC(N)=O)NC(=O)[C@@H]1CCCN1C(C)=O)[C@@H](C)O)C(C)C)C(=O)N[C@@H](CCCNC(=N)N)C(=O)N[C@@H](CC(C)C)C(=O)N[C@@H](CCCNC(=N)N)C(=O)N[C@@H](CCCCN)C(=O)N[C@@H](CC(C)C)C(=O)N1CCC[C@H]1C(=O)N[C@@H](CC(=O)O)C(=O)N[C@@H](CO)C(=O)N[C@@H](Cc1ccccc1)C(=O)N[C@@H](C)C(=O)N[C@@H](CCCCN)C(=O)N1CCC[C@H]1C(=O)N1CCC[C@H]1C(=O)N[C@@H](CCC(=O)O)C(N)=O` (Ac-PQTVPMRLRKLPDSFAKPPE-NH2), the inhibition turned out to be 9.4%. The same measure, in the same setting: the value for `CSCC[C@H](NC(=O)[C@@H]1CCCN1C(=O)[C@@H](NC(=O)[C@@H](NC(=O)[C@H](CCC(N)=O)NC(=O)[C@@H]1CCCN1C(C)=O)[C@@H](C)O)C(C)C)C(=O)N[C@@H](CCCNC(=N)N)C(=O)N[C@@H](CC(C)C)C(=O)N[C@@H](CCCNC(=N)N)C(=O)N[C@@H](CCCCN)C(=O)N[C@@H](CC(C)C)C(=O)N1CCC[C@H]1C(=O)N[C@@H](CC(=O)O)C(=O)N[C@@H](CO)C(=O)N[C@@H](Cc1ccccc1)C(=O)N[C@@H](Cc1ccccc1)C(N)=O` (Ac-PQTVPMRLRKLPDSFF-NH2) was 13%.

On to `CSCC[C@H](NC(=O)[C@@H]1CCCN1C(=O)[C@@H](NC(=O)[C@@H](NC(=O)[C@H](CCC(N)=O)NC(=O)[C@@H]1CCCN1C(C)=O)[C@@H](C)O)C(C)C)C(=O)N[C@@H](CCCNC(=N)N)C(=O)N[C@@H](CC(C)C)C(=O)N[C@@H](CCCNC(=N)N)C(=O)N[C@@H](CCCCN)C(=O)N[C@@H](CC(C)C)C(=O)N1CCC[C@H]1C(=O)N[C@@H](CC(=O)O)C(=O)N[C@@H](CO)C(=O)N[C@@H](Cc1ccccc1)C(=O)N[C@@H](Cc1ccccc1)C(=O)N[C@@H](C)C(=O)N1CCC[C@H]1C(=O)N1CCC[C@H]1C(=O)N[C@@H](CCC(=O)O)C(N)=O` (Ac-PQTVPMRLRKLPDSFFAPPE-NH2), for which the inhibition was determined as 42%. Turning to `CSCC[C@H](NC(=O)[C@@H]1CCCN1C(=O)[C@@H](NC(=O)[C@@H](NC(=O)[C@H](CCC(N)=O)NC(=O)[C@@H]1CCCN1C(C)=O)[C@@H](C)O)C(C)C)C(=O)N[C@@H](CCCNC(=N)N)C(=O)N[C@@H](CC(C)C)C(=O)N[C@@H](CCCNC(=N)N)C(=O)N[C@@H](CCCCN)C(=O)N[C@@H](CC(C)C)C(=O)N1CCC[C@H]1C(=O)N[C@@H](CC(=O)O)C(=O)N[C@@H](CO)C(=O)N[C@@H](Cc1ccccc1)C(=O)N[C@@H](Cc1ccccc1)C(=O)N[C@@H](CCCCN)C(N)=O` (Ac-PQTVPMRLRKLPDSFFK-NH2), the inhibition came to 14%. On to `CSCC[C@H](NC(=O)[C@@H]1CCCN1C(=O)[C@@H](NC(=O)[C@@H](NC(=O)[C@H](CCC(N)=O)NC(=O)[C@@H]1CCCN1C(C)=O)[C@@H](C)O)C(C)C)C(=O)N[C@@H](CCCNC(=N)N)C(=O)N[C@@H](CC(C)C)C(=O)N[C@@H](CCCNC(=N)N)C(=O)N[C@@H](CCCCN)C(=O)N[C@@H](CC(C)C)C(=O)N1CCC[C@H]1C(=O)N[C@@H](CC(=O)O)C(=O)N[C@@H](CO)C(=O)N[C@@H](Cc1ccccc1)C(=O)N[C@@H](Cc1ccccc1)C(=O)N[C@@H](CCCCN)C(=O)N[C@@H](C)C(=O)N1CCC[C@H]1C(=O)N[C@@H](CCC(=O)O)C(N)=O` (Ac-PQTVPMRLRKLPDSFFKAPE-NH2), for which the inhibition amounted to 47%. As to `CSCC[C@H](NC(=O)[C@@H]1CCCN1C(=O)[C@@H](NC(=O)[C@@H](NC(=O)[C@H](CCC(N)=O)NC(=O)[C@@H]1CCCN1C(C)=O)[C@@H](C)O)C(C)C)C(=O)N[C@@H](CCCNC(=N)N)C(=O)N[C@@H](CC(C)C)C(=O)N[C@@H](CCCNC(=N)N)C(=O)N[C@@H](CCCCN)C(=O)N[C@@H](CC(C)C)C(=O)N1CCC[C@H]1C(=O)N[C@@H](CC(=O)O)C(=O)N[C@@H](CO)C(=O)N[C@@H](Cc1ccccc1)C(=O)N[C@@H](Cc1ccccc1)C(=O)N[C@@H](CCCCN)C(=O)N1CCC[C@H]1C(N)=O` (Ac-PQTVPMRLRKLPDSFFKP-NH2), the inhibition was 42%. With `CSCC[C@H](NC(=O)[C@@H]1CCCN1C(=O)[C@@H](NC(=O)[C@@H](NC(=O)[C@H](CCC(N)=O)NC(=O)[C@@H]1CCCN1C(C)=O)[C@@H](C)O)C(C)C)C(=O)N[C@@H](CCCNC(=N)N)C(=O)N[C@@H](CC(C)C)C(=O)N[C@@H](CCCNC(=N)N)C(=O)N[C@@H](CCCCN)C(=O)N[C@@H](CC(C)C)C(=O)N1CCC[C@H]1C(=O)N[C@@H](CC(=O)O)C(=O)N[C@@H](CO)C(=O)N[C@@H](Cc1ccccc1)C(=O)N[C@@H](Cc1ccccc1)C(=O)N[C@@H](CCCCN)C(=O)N1CCC[C@H]1C(=O)N1CCC[C@H]1C(N)=O` (Ac-PQTVPMRLRKLPDSFFKPP-NH2), the inhibition turned out to be 52%.

In the case of `CC(=O)N[C@@H](CCCNC(=N)N)C(=O)N[C@@H](CC(C)C)C(=O)N[C@@H](CCCNC(=N)N)C(=O)N[C@@H](CCCCN)C(=O)N[C@@H](CC(C)C)C(=O)N1CCC[C@H]1C(=O)N[C@@H](CC(=O)O)C(=O)N[C@@H](CO)C(=O)N[C@@H](Cc1ccccc1)C(=O)N[C@@H](Cc1ccccc1)C(=O)N[C@@H](CCCCN)C(=O)N1CCC[C@H]1C(=O)N1CCC[C@H]1C(=O)N[C@@H](CCC(=O)O)C(N)=O` (Ac-RLRKLPDSFFKPPE-NH2), the inhibition was 12%.

The target in another test is Transcriptional coactivator YAP1/Transcriptional enhancer factor TEF-1 (Homo sapiens, UniProt P28347). The test can be described thus: Inhibition of YAP/ GST-TEAD1 (unknown origin) interaction by surface plasmon resonance assay. The format is protein assay.
Transcriptional coactivator YAP1/Transcriptional enhancer factor TEF-1, sequence (P46937 whole entry): as the sequence (P46937 whole entry, looked up) above
Transcriptional coactivator YAP1/Transcriptional enhancer factor TEF-1, sequence (P28347 whole entry): as the sequence (P28347 whole entry, looked up) above
What is called IC50 is the concentration that inhibits the measured activity by half. Take `CSCC[C@H](NC(=O)[C@@H]1CCCN1C(=O)[C@@H](NC(C)=O)C(C)C)C(=O)N[C@H]1CCSSC[C@@H](C(=O)N[C@@H](CCCCN)C(=O)N2CCC[C@H]2C(=O)N2CCC[C@H]2C(=O)N[C@@H](CCC(=O)O)C(N)=O)NC(=O)[C@H](Cc2ccccc2)NC(=O)[C@H](CO)NC(=O)[C@H](C)NC(=O)[C@@H]2CCCN2C(=O)[C@H](CCC(C)C)NC(=O)[C@H](CCCCN)NC(=O)[C@H](CCCNC(=N)N)NC(=O)[C@H](CC(C)C)NC1=O`: the IC50 was determined as 620 nM.

As to `CCCCC[C@H](NC(=O)[C@@H]1CCCN1C(=O)[C@@H](NC(C)=O)C(C)C)C(=O)N[C@H]1CCSSC[C@@H](C(=O)N[C@@H](CCCCN)C(=O)N2CCC[C@H]2C(=O)N2CCC[C@H]2C(=O)N[C@@H](CCC(=O)O)C(N)=O)NC(=O)[C@H](Cc2ccccc2)NC(=O)[C@H](CO)NC(=O)[C@H](C)NC(=O)[C@@H]2CCCN2C(=O)[C@H](CCCC)NC(=O)[C@H](CCCCN)NC(=O)[C@H](CCCNC(=N)N)NC(=O)[C@H](CC(C)C)NC1=O`, the IC50 stood at 41 nM. For the compound `CCCC[C@@H]1NC(=O)[C@H](CCCCN)NC(=O)[C@H](CCCNC(=N)N)NC(=O)[C@H](CC(C)C)NC(=O)[C@@H](NC(=O)[C@H](Cc2ccccc2Cl)NC(=O)[C@@H]2CCCN2C(=O)[C@@H](NC(C)=O)C(C)C)CCSSC[C@@H](C(=O)N[C@@H](CCCCN)C(=O)N2CCC[C@H]2C(=O)N2CCC[C@H]2C(=O)N[C@@H](CCC(=O)O)C(N)=O)NC(=O)[C@H](Cc2ccccc2)NC(=O)[C@H](CO)NC(=O)[C@H](C)NC(=O)[C@@H]2CCCN2C1=O`, the half-maximal inhibitory concentration (IC50) was 380 nM. As for `CCCC[C@@H]1NC(=O)[C@H](CCCCN)NC(=O)[C@H](CCCNC(=N)N)NC(=O)[C@H](CC(C)C)NC(=O)[C@@H](NC(=O)[C@H](CCSC)NC(=O)[C@@H]2CCCN2C(=O)[C@@H](NC(C)=O)C(C)C)CCSSC[C@@H](C(=O)N[C@@H](CCCCN)C(=O)N2CCC[C@H]2C(=O)N2CCC[C@H]2C(=O)N[C@@H](CCC(=O)O)C(N)=O)NC(=O)[C@H](Cc2ccc(F)cc2)NC(=O)[C@H](CO)NC(=O)[C@H](C)NC(=O)[C@@H]2CCCN2C1=O`, the IC50 came out at 75 nM.

For the origin of these results see ChEMBL document CHEMBL3351292, “Structure-Based Design and Synthesis of Potent Cyclic Peptides Inhibiting the YAP-TEAD Protein-Protein Interaction” (ACS Med Chem Lett, 2014).
